The source made the active and inactive calls. No cut-off for these calls is given here.
Assays:
[1] = tested on: HCC1806; test: Induction of apoptosis in human HCC1806 cells assessed as late apoptotic cells at 50 uM after 48 hrs by Annexin V-FITC/propidium iodide double staining based flow cytometry (reference value: 0.81%); assay type: functional
[2] = Toxicity in ICR mouse assessed as induction of morphological changes in lung at 25 mg/kg, iv administered once per day for 23 consecutive days; assay type: organism-based; conditions: in vivo
[3] = tested on: HCC1806; test: Induction of apoptosis in human HCC1806 cells assessed as increase in Bad expression at 50 to 200 nM after 48 hrs by Western blot analysis; assay type: functional, cell-based
[4] = Toxicity in ICR mouse assessed as induction of morphological changes in kidney at 25 mg/kg, iv administered once per day for 23 consecutive days; assay type: organism-based; conditions: in vivo
[5] = tested on: HCC1806; test: Induction of apoptosis in human HCC1806 cells assessed as increase in Bax expression at 50 to 200 nM after 48 hrs by Western blot analysis; assay type: functional, cell-based
[6] = tested on: HCC1806; test: Induction of apoptosis in human HCC1806 cells assessed as viable cells at 200 uM after 48 hrs by Annexin V-FITC/propidium iodide double staining based flow cytometry (reference value: 95.7%); assay type: functional; conditions: HCC1806, 48 h, read-out: Activity
[7] = tested on: HCC1806; test: Inhibition of cell invasion in human HCC1806 cells at 100 to 200 nM incubated for 48 hrs by crystal violet staining based matrigel coated transwell assay; assay type: functional
[8] = tested on: HCC1806; test: Induction of apoptosis in human HCC1806 cells after 48 hrs by Annexin V-FITC/propidium iodide double staining based flow cytometry; assay type: functional, cell-based
[9] = tested on: NCI/ADR-RES; test: Antiproliferative activity against human MCF7/ADR cells after 72 hrs by MTT assay; assay type: functional, cell-based
[10] = tested on: MDA-MB-453; test: Antiproliferative activity against human MDA-MB-453 cells after 72 hrs by MTT assay; assay type: functional, cell-based; conditions: MDA-MB-453, 72 h
[11] = tested on: HCC1937; test: Antiproliferative activity against human HCC1937 cells after 72 hrs by MTT assay; assay type: functional, cell-based; conditions: HCC1937, 72 h
[12] = tested on: HCC1806; test: Induction of apoptosis in human HCC1806 cells assessed as viable cells at 50 uM after 48 hrs by Annexin V-FITC/propidium iodide double staining based flow cytometry (reference value: 95.7%); assay type: functional; conditions: HCC1806, 48 h, read-out: Activity
[13] = tested on: HCC1806; test: Induction of apoptosis in human HCC1806 cells assessed as early apoptotic cells at 100 uM after 48 hrs by Annexin V-FITC/propidium iodide double staining based flow cytometry (reference value: 2.16%); assay type: functional
[14] = tested on: HCC1806; test: Induction of cell cycle arrest in human HCC1806 cells assessed as downregulation of cyclin B1 expression by western blot analysis; assay type: functional, cell-based
[15] = tested on: HCC1806; test: Antitumor activity against human HCC1806 cells in ICR mouse assessed as increase in apoptosis in tumor at 12.5 to 25 mg/kg, iv administered once per day for 23 consecutive days by TUNEL based immunohistochemical analysis; assay type: functional, organism-based
[16] = tested on: HCC1806; test: Induction of cell cycle arrest in human HCC1806 cells assessed as increase in accumulation at G2/M phase after 48 hrs by propidium iodide staining based FACScan flow cytometry; assay type: functional
[17] = tested on: HCC1806; test: Antitumor activity against human HCC1806 cells in ICR mouse assessed as reduction in tumor weight at 12.5 mg/kg, iv administered once per day for 23 consecutive days and measured every 2 days relative to control; assay type: functional; set-up: scale not given: the % may be the effect or the level left
[18] = tested on: HCC1806; test: Induction of cell cycle arrest in human HCC1806 cells assessed as accumulation at G1 phase at 200 nM after 48 hrs by propidium iodide staining based FACScan flow cytometry (reference value: 70.74%); assay type: functional
[19] = Inhibition of PI3K/Akt/mTOR signalling pathway in human HCC1806 cells assessed as reduction in phosphorylated Akt expression at S473 residue after 48 hrs by Western blot analysis; assay type: cell-based
[20] = tested on: HCC1806; test: Antimigratory activity in human HCC1806 cells assessed as reduction in EGFR expression at 50 to 200 nM after 48 hrs by Western blot analysis; assay type: functional, cell-based
[21] = tested on: HCC1806; test: Induction of cell cycle arrest in human HCC1806 cells assessed as accumulation at G1 phase at 100 nM after 48 hrs by propidium iodide staining based FACScan flow cytometry (reference value: 70.74%); assay type: functional
[22] = tested on: NCI/ADR-RES; test: Potency index, ratio of oridonin IC50 to compound IC50 for antiproliferative activity against human MCF7/ADR cells after 72 hrs by MTT assay; assay type: functional
[23] = tested on: HCC1806; test: Induction of apoptosis in human HCC1806 cells assessed as early apoptotic cells at 50 uM after 48 hrs by Annexin V-FITC/propidium iodide double staining based flow cytometry (reference value: 2.16%); assay type: functional
[24] = tested on: HCC1806; test: Induction of cell cycle arrest in human HCC1806 cells assessed as accumulation at G2/M phase at 200 nM after 48 hrs by propidium iodide staining based FACScan flow cytometry (reference value: 10.38%); assay type: functional
[25] = tested on: HCC1806; test: Induction of cell cycle arrest in human HCC1806 cells assessed as downregulation of cdc2 expression by western blot analysis; assay type: functional, cell-based
[26] = tested on: HCC1806; test: Induction of intracellular reactive oxygen species generation in human HCC1806 cells incubated for 48 hrs by DCFH2-DA staining based flow cytometeric analysis; assay type: functional, cell-based
[27] = tested on: HCC1806; test: Antitumor activity against human HCC1806 cells in ICR mouse assessed as increase in apoptosis in tumor at 12.5 to 25 mg/kg, iv administered once per day for 23 consecutive days by Ki67 staining-based immunohistochemical analysis; assay type: functional, organism-based
[28] = tested on: MDA-MB-468; test: Antiproliferative activity against human MDA-MB-468 cells after 72 hrs by MTT assay; assay type: functional, cell-based; conditions: MDA-MB-468, 72 h
[29] = Toxicity in ICR mouse assessed as induction of morphological changes in spleen at 25 mg/kg, iv administered once per day for 23 consecutive days; assay type: organism-based; conditions: in vivo
[30] = tested on: HCC1806; test: Induction of apoptosis in human HCC1806 cells assessed as necrotic cells at 50 uM after 48 hrs by Annexin V-FITC/propidium iodide double staining based flow cytometry (reference value: 1.32%); assay type: functional
[31] = tested on: HCC1806; test: Antitumor activity against human HCC1806 cells in ICR mouse assessed as tumor shrinkage at 12.5 to 25 mg/kg, iv administered once per day for 23 consecutive days by hematoxylin and eosin staining based histopathological assay; assay type: functional, organism-based
[32] = tested on: HCC1806; test: Induction of cell death in human HCC1806 cells at 200 nM incubated for 72 hrs in presence of caspase inhibitor z-VAD by MTT assay; assay type: functional, cell-based
[33] = tested on: SK-BR-3; test: Antiproliferative activity against human SK-BR-3 cells after 72 hrs by MTT assay; assay type: functional, cell-based; conditions: SK-BR-3, 72 h
[34] = tested on: HCC1806; test: Induction of cell cycle arrest in human HCC1806 cells assessed as accumulation at S phase at 50 nM after 48 hrs by propidium iodide staining based FACScan flow cytometry (reference value: 18.89%); assay type: functional
[35] = tested on: MDA-MB-231; test: Antiproliferative activity against human MDA-MB-231 cells after 72 hrs by MTT assay; assay type: functional, cell-based; conditions: MDA-MB-231, 72 h
[36] = tested on: HCC1806; test: Antimigratory activity against human HCC1806 cells measured up to 48 hrs by phase contrast microscopic based scratch wound healing assay; assay type: functional, cell-based
[37] = tested on: HCC1806; test: Induction of cell death in human HCC1806 cells at 200 nM incubated for 72 hrs in presence of necroptosis inhibitor necrostatin-1 by MTT assay; assay type: functional, cell-based

For C=C1C(=O)[C@@]23C(=O)[C@@H]4OC[C@]5(C=CCC(C)(C)[C@@H]45)[C@@H]2CC[C@@H]1[C@H]3OC(=O)/C=C/c1ccncc1, which Activity [1] is on record?
The Activity was 2.43%.

And the Activity [2]?
Its Activity is “Non-Toxic”.

What about the Activity [3] of the same compound?
Its Activity is “Active”.

And the Activity [4]?
Its Activity is “Non-Toxic”.

And the Activity [5]?
Its Activity is “Active”.

And the viability at 200 µM [6]?
Its viability at 200 µM is 50.4%.

What about the inhibition [7] of the same compound?
The inhibition was “Active”.

What about the Activity [8] of the same compound?
The Activity was “Dose-dependent effect”.

And the IC50 [9]?
Its IC50 is 1380 nM.

What about the IC50 [10] of the same compound?
The IC50 was 330 nM.

And the IC50 [11]?
The IC50 was 280 nM.

And the viability at 50 µM [12]?
Its viability at 50 µM is 82.2%.

And the Activity [13]?
Its Activity is 26.78%.

And the Activity [14]?
Its Activity is “Dose-dependent effect”.

And the Activity [15]?
Its Activity is “Active”.

What about the Activity [16] of the same compound?
Its Activity is “Dose-dependent effect”.

What about the Activity [17] of the same compound?
The Activity was 67.3%.

And the Activity [18]?
Its Activity is 54.97%.

And the inhibition [19]?
The inhibition was “Dose-dependent effect”.

What about the Activity [20] of the same compound?
The Activity was “Active”.

What about the Activity [21] of the same compound?
Its Activity is 60.61%.

And the “Ratio IC50” value [22]?
Its value is 20.

What about the Activity [23] of the same compound?
The Activity was 14.87%.

What about the Activity [24] of the same compound?
The Activity was 24.28%.

And the Activity [25]?
The Activity was “Dose-dependent effect”.

And the Activity [26]?
The Activity was “Dose-dependent effect”.

And the Activity [27]?
The Activity was “Active”.

What about the IC50 [28] of the same compound?
Its IC50 is 450 nM.

And the Activity [29]?
The Activity was “Non-Toxic”.

And the Activity [30]?
Its Activity is 0.46%.

What about the Activity [31] of the same compound?
Its Activity is “Active”.

And the Activity [32]?
The Activity was “inactive”.

What about the IC50 [33] of the same compound?
Its IC50 is 220 nM.

What about the Activity [34] of the same compound?
Its Activity is 18.24%.

And the IC50 [35]?
The IC50 was 630 nM.

What about the Activity [36] of the same compound?
The Activity was “Dose-dependent effect”.

What about the Activity [37] of the same compound?
Its Activity is “Active”.
